The values that follow come from patent publication US20070149557A1, “CXCR3 antagonists” (Amgen Inc., priority 2005, published 2007).

The target in this experiment is T1, CXCR3 (Homo sapiens, UniProt P49682).
T1 sequence (P49682 1-368): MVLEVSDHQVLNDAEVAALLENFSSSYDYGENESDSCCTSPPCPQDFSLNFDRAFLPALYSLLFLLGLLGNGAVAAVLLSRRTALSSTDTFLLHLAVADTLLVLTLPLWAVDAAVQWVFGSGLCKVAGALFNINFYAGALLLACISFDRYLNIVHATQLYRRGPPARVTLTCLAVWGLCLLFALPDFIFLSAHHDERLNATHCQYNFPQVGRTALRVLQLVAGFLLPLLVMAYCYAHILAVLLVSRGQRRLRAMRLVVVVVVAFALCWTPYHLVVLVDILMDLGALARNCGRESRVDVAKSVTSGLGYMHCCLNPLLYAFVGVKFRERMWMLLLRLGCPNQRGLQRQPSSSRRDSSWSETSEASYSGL
Kind of experiment: 125I-IP-10 binding assay. Particulars: displacement of 125I-IP-10. (In general: Displacement assays read how much labelled ligand stays bound in the presence of the test substance.)
`FC(F)(F)c1cnc(N2CCC3(CC2)NCCc2c3[nH]c3ccccc23)c(Cl)c1` [Example 1]: the IC50 (usually the midpoint of a concentration-inhibition curve) was below 0.5 µM.
Under `FC(F)(F)c1ccc(N2CCC3(CC2)NCCc2c3[nH]c3ccccc23)nc1` [Example 2] stands above 1 µM.
The value for `Clc1cnc(N2CCC3(CC2)NCCc2c3[nH]c3ccccc23)c(Cl)c1` [Example 3] was above 1 µM; that for `Cc1cc(C(F)(F)F)cnc1N1CCC2(CC1)NCCc1c2[nH]c2ccccc12` [Example 4] was above 1 µM.
Compound `FC(F)(F)c1ccc(N2CCC3(CC2)NCCc2c3[nH]c3ccccc23)c(Cl)c1` [Example 5] displayed a half-maximal inhibitory concentration (IC50) below 0.5 µM.
Under `FC(F)(F)c1ccc(Cl)c(N2CCC3(CC2)NCCc2c3[nH]c3ccccc23)c1` [Example 6] stands above 1 µM.
Turning to `FC(F)(F)c1ccc(N2CCC3(CC2)NCCc2c3[nH]c3ccccc23)cc1` [Example 7], the IC50 is above 1 µM.
Under `O=[N+]([O-])c1cc(C(F)(F)F)ccc1N1CCC2(CC1)NCCc1c2[nH]c2ccccc12` [Example 8] stands above 1 µM.
The value for `NC(=O)c1cc(C(F)(F)F)ccc1N1CCC2(CC1)NCCc1c2[nH]c2ccccc12` [Example 9] was 0.5 to 1 µM.
The value for `N#Cc1cc(C(F)(F)F)ccc1N1CCC2(CC1)NCCc1c2[nH]c2ccccc12` [Example 10] was above 1 µM.
Compound `FC(F)(F)c1ccc(N2CCC3(CC2)NCCc2c3[nH]c3ccccc23)c(C(F)(F)F)c1` [Example 11] returned an IC50 above 1 µM.
Under `Fc1cc(C(F)(F)F)ccc1N1CCC2(CC1)NCCc1c2[nH]c2ccccc12` [Example 12] stands above 1 µM.
The value for `FC(F)(F)c1ccc(N2CCC3(CC2)NCCc2c3[nH]c3ccccc23)c(Br)c1` [Example 13] was above 1 µM.
Under `FC(F)(F)c1cc(Cl)c(N2CCC3(CC2)NCCc2c3[nH]c3ccccc23)c(Cl)c1` [Example 14] stands above 1 µM; under `O=[N+]([O-])c1cc(C(F)(F)F)cc(Cl)c1N1CCC2(CC1)NCCc1c2[nH]c2ccccc12` [Example 15], below 0.5 µM; under `Clc1ccc(N2CCC3(CC2)NCCc2c3[nH]c3ccccc23)c(Cl)c1` [Example 16], above 1 µM.
In turn, `Clc1cc(I)ccc1N1CCC2(CC1)NCCc1c2[nH]c2ccccc12` [Example 17] returned an IC50 above 1 µM.
Under `O=[N+]([O-])c1ccc(N2CCC3(CC2)NCCc2c3[nH]c3ccccc23)c(Cl)c1` [Example 18] stands above 1 µM.
Under `COC(=O)c1ccc(N2CCC3(CC2)NCCc2c3[nH]c3ccccc23)c(Cl)c1` [Example 19] stands above 1 µM.
